According to ChEMBL document CHEMBL1201862, “PubChem BioAssay data set” (2004):
Calls of active or inactive are those of the source.

Assays:
[1] = target: T1, Rac GTPase-activating protein 1 (Homo sapiens, UniProt Q9H0H5); experiment: blockers of MgcRacGAP-driven Rac1 GTP hydrolysis – biochemical, ADP Hunter fluorescence, primary and confirmatory, confirmation (AID 624330); type: functional
T1 sequence (Q9H0H5 whole entry): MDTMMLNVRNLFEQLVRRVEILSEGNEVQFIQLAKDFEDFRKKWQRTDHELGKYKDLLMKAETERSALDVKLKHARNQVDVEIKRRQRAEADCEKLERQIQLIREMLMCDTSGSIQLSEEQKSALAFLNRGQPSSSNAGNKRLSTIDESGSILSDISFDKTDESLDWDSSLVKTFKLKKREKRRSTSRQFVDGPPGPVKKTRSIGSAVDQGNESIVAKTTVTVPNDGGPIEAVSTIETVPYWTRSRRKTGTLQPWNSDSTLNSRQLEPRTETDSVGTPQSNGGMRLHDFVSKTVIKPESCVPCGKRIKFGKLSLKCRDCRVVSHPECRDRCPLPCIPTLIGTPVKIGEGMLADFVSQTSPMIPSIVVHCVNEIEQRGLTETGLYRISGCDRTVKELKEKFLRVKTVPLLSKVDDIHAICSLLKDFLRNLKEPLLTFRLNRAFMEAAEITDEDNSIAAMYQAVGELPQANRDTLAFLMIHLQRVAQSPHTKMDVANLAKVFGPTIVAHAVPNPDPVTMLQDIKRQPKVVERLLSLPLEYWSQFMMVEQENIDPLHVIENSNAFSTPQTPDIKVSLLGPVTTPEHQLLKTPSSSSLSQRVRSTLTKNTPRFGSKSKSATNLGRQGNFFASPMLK

[2] = target: T2, DNA repair protein RAD52 homolog (Homo sapiens, UniProt P43351); type: functional, biochemical
T2 sequence (P43351 whole entry): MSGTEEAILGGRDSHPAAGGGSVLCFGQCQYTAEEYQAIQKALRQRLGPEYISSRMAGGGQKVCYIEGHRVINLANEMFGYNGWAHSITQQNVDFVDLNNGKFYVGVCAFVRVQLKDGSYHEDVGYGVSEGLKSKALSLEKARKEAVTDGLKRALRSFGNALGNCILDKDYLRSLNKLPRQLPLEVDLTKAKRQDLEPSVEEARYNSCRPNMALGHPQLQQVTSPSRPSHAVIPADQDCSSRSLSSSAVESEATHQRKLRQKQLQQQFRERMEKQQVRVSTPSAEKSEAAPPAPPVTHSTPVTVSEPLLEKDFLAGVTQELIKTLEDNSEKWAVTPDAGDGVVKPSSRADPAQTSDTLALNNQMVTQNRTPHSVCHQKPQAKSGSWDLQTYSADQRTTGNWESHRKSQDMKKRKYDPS

[3] = target: T3, Oxysterols receptor LXR-beta (Homo sapiens, UniProt P55055); type: functional, cell-based;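 note: agonist activity at LXR measured by a cell-based luminescence readout across a dose range, run as a counterscreen for daf-12 agonists; HEK293 cells with Gal4-LXR fusion and GAL4-driven luciferase reporter; potency for activation of Gal4-LXR reporter so compounds are agonists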
T3 sequence (P55055 whole entry): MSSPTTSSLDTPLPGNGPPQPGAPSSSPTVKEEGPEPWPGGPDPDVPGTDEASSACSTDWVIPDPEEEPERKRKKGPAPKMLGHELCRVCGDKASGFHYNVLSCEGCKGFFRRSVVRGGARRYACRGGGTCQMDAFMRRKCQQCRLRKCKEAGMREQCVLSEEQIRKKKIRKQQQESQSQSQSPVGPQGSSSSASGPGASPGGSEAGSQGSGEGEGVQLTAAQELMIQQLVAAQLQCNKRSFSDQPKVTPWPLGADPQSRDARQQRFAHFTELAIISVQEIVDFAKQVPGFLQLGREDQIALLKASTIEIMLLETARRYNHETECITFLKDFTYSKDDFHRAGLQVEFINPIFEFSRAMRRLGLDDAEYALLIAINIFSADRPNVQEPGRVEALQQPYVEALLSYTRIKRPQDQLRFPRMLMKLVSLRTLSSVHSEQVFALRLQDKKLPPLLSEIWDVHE

[4] = microbe, parasite or virus in culture; type: functional; conditions: Mycobacterium tuberculosis
[5] = A549 cell cytotoxicity, dose response, cytotoxicity control, plate reader, cherry-pick, antagonist series (AID 743412); type: functional, cell-based
[6] = test system: Streptococcus sp. 'group A'; experiment: Streptococcus pyogenes SK(-)GAS viability under kanamycin – luminescence, BacTiterGlo, confirmation, counter-screen for streptokinase expression inhibitor project, dose response (AID 1900); type: functional, organism-based
cells [7] = type: functional, cell-based
[8] = target: T4, Heat shock factor protein 1 (Mus musculus, UniProt P38532); experiment: decrease of HSF1-responsive luciferase luminescence – cell-based, NIH3T3, dose retest, confirmation (AID 2382); type: functional;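 note: NIH3T3 fibroblasts with HSF1-driven luciferase reporter stressed by proteasome inhibitor MG132; luminescence from HSF1-driven luciferase expression after 8 hours of MG132 stress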
T4 sequence (P38532 whole entry): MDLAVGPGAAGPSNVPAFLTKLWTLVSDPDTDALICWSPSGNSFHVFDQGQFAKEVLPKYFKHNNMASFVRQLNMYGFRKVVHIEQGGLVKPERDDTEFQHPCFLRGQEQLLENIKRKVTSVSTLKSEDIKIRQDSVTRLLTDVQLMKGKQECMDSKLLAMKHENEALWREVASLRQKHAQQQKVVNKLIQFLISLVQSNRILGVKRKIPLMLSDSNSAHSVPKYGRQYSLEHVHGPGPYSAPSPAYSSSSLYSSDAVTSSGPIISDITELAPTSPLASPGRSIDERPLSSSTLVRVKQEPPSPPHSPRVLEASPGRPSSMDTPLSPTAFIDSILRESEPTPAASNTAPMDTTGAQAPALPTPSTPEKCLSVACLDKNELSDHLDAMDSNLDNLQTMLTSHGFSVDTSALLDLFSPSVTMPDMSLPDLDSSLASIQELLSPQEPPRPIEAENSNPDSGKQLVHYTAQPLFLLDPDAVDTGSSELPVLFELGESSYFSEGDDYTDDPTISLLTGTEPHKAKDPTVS

[9] = Trypanosoma cruzi growth suppression in host cells – NIH3T3 host cells, beta-gal luminescence, confirmation (AID 2044); type: functional, cell-based;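 note: intracellular parasites grown in NIH/3T3 mouse fibroblasts as host cells; luminescent beta-galactosidase reporter signal from transgenic T. cruzi replicating inside host cells; inhibitors lower the luminescence signal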
cells [10] = type: functional, cell-based; remark: listed apart in the source
[11] = NIH3T3 cell viability loss – ATP luminescence, mouse fibroblasts, counter-screen, dose response (AID 2010); type: functional, cell-based;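 note: cells exposed to compound for about 90 hours before reading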
Streptococcus = experiment: GAS UMAA2166 growth inhibition – luminescence, BacTiterGlo, counter-screen for streptokinase expression inhibitor project, dose response (AID 1915); type: functional, organism-based;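 note: potency for reduction of bacterial viability or growth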
[12] = target: Heat shock protein HSP 90-alpha (Homo sapiens, UniProt P07900); type: functional, organism-based
[13] = reduction of Shn3 3'UTR-driven luciferase in osteoblasts – cell-based, Clone20 osteoblasts, firefly luciferase, cherry-picked, dose response (AID 624132); type: functional;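 note: firefly luciferase luminescence from reporter carrying the Shn3 3'UTR in osteoblasts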
[14] = loss of viability in HepG2 cells – cell-based, CellTiter-Glo, cherry-picked, cytotoxicity control for Shn3 inhibitor project, dose response (AID 624134); type: functional
[15] = non-specific 3'UTR reporter inhibition in Clone20-Shn3RL – cell-based, Renilla luciferase, cherry-picked, counter-screen for Shn3 inhibitor project, dose response (AID 624133); type: functional
[16] = activation of miR-122 Renilla sensor silencing – cell-based, Huh7 psiCHECK-miR122, Renilla luciferase, cherry-picked, dose response (AID 651956); type: functional;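 note: huh7 hepatoma cells stably carrying a psiCHECK-2 miR-122 sensor plasmid; renilla luciferase signal reporting endogenous miR-122 activity after 48 h compound exposure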
[17] = general mammalian cell viability loss – activator set, cherry-pick, cytotoxicity control for miR-122 modulator project, dose response (AID 720690); type: functional, cell-based;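 note: HEK293T human cells scored for general mammalian cytotoxicity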
[18] = target: Glucose-6-phosphate 1-dehydrogenase (Homo sapiens, UniProt P11413); experiment: inhibition of Homo sapiens G6PD, dose series – biochemical, fluorescence, selectivity assay for P. falciparum G6PD inhibitor project, dose response (AID 504792); type: functional
[19] = viability loss in CEM21 cells – cell-based, CellTiter-Glo luminescence, cherry-picked, cytotoxicity control for viral fusion inhibitor project, dose response (AID 652042); type: functional;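 note: potency for signal decrease meaning cytotoxicity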
[20] = blockers of HIV-1 envelope-mediated cell-cell fusion – cherry-pick, dose response (AID 652057); type: functional, cell-based
[21] = blockers of HIV-1 ZM109 envelope-driven cell-cell fusion – HeLa effector, CEM target cells, luciferase, cherry-pick, dose response (AID 652058); type: functional, cell-based;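 note: luciferase signal from HIV-1 Env mediated cell-cell fusion of effector and target cells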
[22] = off-target signal loss in HeLa-CEM21 co-culture – HeLa F-luc CTL cells, cherry-picked, counter-screen for HIV-1 Env fusion inhibitor project, dose response (AID 652040); type: functional, cell-based;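 note: potency for signal decrease marking cytotoxic or nonspecific inhibition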
[23] = HIV-1 AD8 envelope cell-cell fusion blockers – cherry-pick, dose response (AID 652062); type: functional, cell-based;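 note: luciferase signal from cell-cell fusion driven by HIV-1 clade B AD8 Env; potency is for inhibitors of fusion seen as a drop in luminescence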
Paired box protein Pax-8 = Paired box protein Pax-8 (Homo sapiens, UniProt Q06710); experiment: PAX8 transcriptional activity inhibition in RMG-I – RMG-I cells, luciferase, cherry-pick, dose response (AID 687027); type: functional, cell-based;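 note: luciferase reporter driven by Pax8 target thyroperoxidase promoter measured by SteadyGlo luminescence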
[24] = OVCAR-3 cell viability loss – plate reader, dry powder samples, PAX8 inhibitor project, dose response (AID 743044); type: functional, cell-based
[25] = IGROV1 cell killing – plate reader, dry powder samples, PAX8 inhibitor project, dose response (AID 743043); type: functional, cell-based; conditions: IGROV-1
[26] = general cell-killing toxicity readout – plate reader, dry powder samples, cytotoxicity control for PAX8 inhibitor project, dose response (AID 743021); type: functional, cell-based
HeLa = experiment: viability loss in HeLa cells – cell-based, ATP luminescence, cherry-pick samples, cytotoxicity control, dose response (AID 687004); type: functional; conditions: Homo sapiens
[27] = general mammalian cell viability loss – inhibitor set, cherry-pick, set 2, cytotoxicity control for miR-122 modulator project, dose response (AID 720697); type: functional, cell-based
[28] = OVCAR8 cell viability loss – plate reader, dry powder samples, PAX8 project, dose response (AID 743197); type: functional, cell-based; conditions: OVCAR-8
[29] = T. cruzi growth inhibition in host cells, dose response, cell-based, plate reader, dry powder, set 2 (AID 652275); type: functional

Chain of Paired box protein Pax-8 (Q06710 whole entry): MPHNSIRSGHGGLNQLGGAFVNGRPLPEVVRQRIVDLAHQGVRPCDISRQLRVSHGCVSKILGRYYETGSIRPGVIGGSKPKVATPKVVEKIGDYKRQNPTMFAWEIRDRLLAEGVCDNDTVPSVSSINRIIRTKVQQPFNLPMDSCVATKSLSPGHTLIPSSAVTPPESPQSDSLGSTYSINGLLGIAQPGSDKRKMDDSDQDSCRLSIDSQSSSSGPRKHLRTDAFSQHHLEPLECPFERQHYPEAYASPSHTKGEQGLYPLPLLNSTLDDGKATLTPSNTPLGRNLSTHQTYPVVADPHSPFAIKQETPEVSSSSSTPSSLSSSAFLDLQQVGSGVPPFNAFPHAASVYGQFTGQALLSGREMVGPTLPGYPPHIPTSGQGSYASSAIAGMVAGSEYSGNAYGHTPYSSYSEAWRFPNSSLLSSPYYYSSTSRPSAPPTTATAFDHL
Chain of Glucose-6-phosphate 1-dehydrogenase (P11413 whole entry, the tested form may be a part): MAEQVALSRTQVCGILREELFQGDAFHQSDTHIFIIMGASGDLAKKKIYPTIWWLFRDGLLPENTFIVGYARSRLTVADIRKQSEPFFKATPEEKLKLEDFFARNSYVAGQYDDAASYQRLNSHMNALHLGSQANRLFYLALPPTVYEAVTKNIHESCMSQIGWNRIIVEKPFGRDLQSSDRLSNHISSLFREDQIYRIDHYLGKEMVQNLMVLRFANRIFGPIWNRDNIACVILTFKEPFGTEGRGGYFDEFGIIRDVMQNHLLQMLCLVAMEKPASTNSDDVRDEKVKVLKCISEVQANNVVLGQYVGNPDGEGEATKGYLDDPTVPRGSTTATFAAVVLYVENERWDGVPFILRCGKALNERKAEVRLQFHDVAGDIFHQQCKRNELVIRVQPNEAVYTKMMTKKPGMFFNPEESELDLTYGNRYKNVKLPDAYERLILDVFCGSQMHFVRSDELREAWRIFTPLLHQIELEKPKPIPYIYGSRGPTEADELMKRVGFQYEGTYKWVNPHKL

Structure (SMILES): O=C(CN1CCCCC1)Nc1ccc(N2CCCCCC2)cc1
- IC50 [1]: 126 µM (active)
- AC50 [2]: 22.8 µM (active)

Structure (SMILES): Cc1ccc(-c2csc(NC(=O)C[n+]3cc(-c4ccccc4)n4c3CCC4)n2)cc1
- AC50 [2]: 21.1 µM (active)

Structure (SMILES): Cc1nnc(SCC(=O)Nc2nsc(-c3ccc(C(C)(C)C)cc3)n2)s1
- EC50 [3]: > 67.5 µM (inactive)

Structure (SMILES): Cc1ccc(-n2cc(CN(C)Cc3nccn3C)c(-c3cccc(C)c3)n2)cc1
- CC50 [4]: > 40 µM (active)
- AC50 [5]: > 52 µM (inactive)

Structure (SMILES): CC(=O)NC(c1ccc(C)cc1)c1cc(Cl)c2cccnc2c1O (configuration not stated)
- EC50 [6]: 1.38 µM (active)
- EC50 (cells [7]): 14.7 µM (active)
- EC50 [8]: 0.911 µM (active)
- EC50 [9]: 0.655 µM (active)
- EC50 (cells [10]): > 350 µM (not active)
- EC50 [11]: 0.763 µM (active)
- EC50 (Streptococcus): 6.97 µM (active)
- AC50 [12]: 3.52 µM (active)
- AC50 [13]: 2.12 µM (active)
- AC50 [14]: 4.67 µM (active)
- AC50 [15]: 3.29 µM (active)
- AC50 [16]: 37.4 µM (active)
- AC50 [17]: 2.8 µM (active)

Structure (SMILES): COc1cc(-c2cc(OC)c(O)c(OC)c2)cc(OC)c1O
- IC50 [18]: > 80 µM (inactive)
- IC50 [1]: 88.4 µM (active)
- AC50 [19]: 27.4 µM (active)

Structure (SMILES): O=C1[C@H](Cc2ccccc2)NCCCC[C@H](c2ccco2)N1Cc1ccccc1
- AC50 [20]: 4.38 µM (active)
- AC50 [19]: 39.9 µM (active)
- AC50 [21]: 10.4 µM (active)
- AC50 [22]: 7.61 µM (active)
- AC50 [23]: 35.3 µM (active)

Structure (SMILES): Cc1nc2cc(Oc3nc(NCCN(C)C)nc4ccsc34)ccc2s1
- AC50 [2]: 21 µM (active)

Structure (SMILES): Cc1ccccc1-c1ccc([C@@H]2[C@H](CO)N3CCCCN(C(=O)Nc4cccc(F)c4)C[C@@H]23)cc1
- AC50 [16]: 9.43 µM (active)
- AC50 (Paired box protein Pax-8): 19.6 µM (active)
- AC50 [24]: 20.4 µM (active)
- AC50 [25]: 35.5 µM (active)
- AC50 [17]: 13.7 µM (active)
- AC50 [26]: 3.19 µM (active)

Structure (SMILES): CCNC(=O)Nc1ccc2c(c1)C(=O)N(C)[C@H]1CC[C@H](CC(=O)Nc3ccccc3F)O[C@@H]1CO2
- AC50 (HeLa): 0.264 µM (active)
- AC50 [27]: 2.11 µM (active)

Structure (SMILES): N#C[C@@H]1[C@H](c2ccc(-c3ccccc3F)cc2)[C@@H](CO)N1C(=O)c1ccccn1
- AC50 [20]: 62.6 µM (active)
- AC50 [19]: 67 µM (active)

Structure (SMILES): Cc1cccc(S(=O)(=O)N2CCCCN3[C@H](CO)[C@H](c4ccc(C#C[C@H](C)O)cc4)[C@H]3C2)c1
- AC50 (Paired box protein Pax-8): 7.18 µM (active)
- AC50 [24]: 30.4 µM (active)
- AC50 [25]: 17.6 µM (active)
- AC50 [28]: > 70 µM (inactive)

Structure (SMILES): C[C@@H]1CCCCO[C@H](CN(C)Cc2ccc(Cl)c(Cl)c2)[C@@H](C)CN([C@@H](C)CO)C(=O)c2cc(NC(=O)c3ccccc3)ccc2O1
- AC50 (Paired box protein Pax-8): 8.87 µM (active)
- AC50 [24]: 43.1 µM (active)
- AC50 [25]: 47.5 µM (active)
- AC50 [26]: 52.7 µM (active)
- AC50 [28]: 60 µM (active)

Structure (SMILES): CC(C)N1CC2(CN(Cc3ccc(Cl)cc3)C2)Oc2c(NC(=O)c3ccncc3)cccc2C1=O
- AC50 [29]: 0.136 µM (active)

Structure (SMILES): COCC(=O)Nc1ccc2c(c1)C(=O)N(C)[C@@H]1CC[C@H](CC(=O)N3CCc4ccccc4C3)O[C@H]1CO2
- AC50 [27]: 9.29 µM (active)
- AC50 [17]: 37 µM (active)

Structure (SMILES): CC(C)N1C(=O)c2cccc(NC(=O)c3ccncc3)c2O[C@H](CN(C)Cc2ccc(Cl)cc2)[C@H]1C
- AC50 [29]: 0.00096 µM (active)

Structure (SMILES): CC(C)(C)[S+]([O-])N1Cc2cc(C(=O)NCc3ccc4c(c3)OCO4)nc(-c3cccc(-c4cccc(F)c4)c3)c2[C@H]1CCO (some centres not stated)
- AC50 [29]: 0.394 µM (active)
